Some results are limits rather than exact numbers.

What is called IC50 is the point on the concentration scale where inhibition reaches its midpoint.

One data set concerns the target Aurora-B (Homo sapiens, UniProt Q96GD4). The data set is described as follows: 33PanQinase protein kinase activity assay. Conditions: recombinant kinase, 1 µM ATP. Format: biochemical.
The next data set deals with CDK2/CycA (Homo sapiens, UniProt P24941). The data set can be described thus: 33PanQinase protein kinase activity assay. Format: biochemical. Conditions: recombinant kinase, 1 µM ATP.
Another data set addresses CDK4/CycD1 (Homo sapiens, UniProt P11802). The data set can be described thus: 33PanQinase protein kinase activity assay. In kind it is biochemical. Conditions: recombinant kinase, 1 µM ATP.
The target in the next data set is B-RAF-VE (Homo sapiens, UniProt P15056, V600E). The data set is described as follows: 33PanQinase protein kinase activity assay. Format: biochemical. Conditions: recombinant kinase, 1 µM ATP. The source says:
(§1) Recombinant protein kinases.

A further data set deals with CK2a1 (Homo sapiens, UniProt P68400). The data set can be described thus: 33PanQinase protein kinase activity assay. Conditions: recombinant kinase, 1 µM ATP. Format: biochemical.
Source text: as §1

For another data set, the target named is COT (Homo sapiens, UniProt P41279). The data set can be described thus: 33PanQinase protein kinase activity assay. In kind it is biochemical. Conditions: recombinant kinase, 1 µM ATP.
Source text: as §1

The target of another data set is ERBB2 (Homo sapiens, UniProt P04626). The data set can be described thus: 33PanQinase protein kinase activity assay. Conditions: recombinant kinase, 1 µM ATP. In kind it is biochemical.
Source text: as §1

Another data set has as its target FLT3 (Homo sapiens, UniProt P36888). The data set can be described thus: 33PanQinase protein kinase activity assay. Format: biochemical. Conditions: recombinant kinase, 1 µM ATP.
Source text: as §1

The target in another data set is MET (Homo sapiens, UniProt P08581). The data set is described as follows: 33PanQinase protein kinase activity assay. In kind it is biochemical. Conditions: recombinant kinase, 1 µM ATP.
Source text: as §1

A further data set has as its target PLK1 (Homo sapiens, UniProt P53350). The data set can be described thus: 33PanQinase protein kinase activity assay. Format: biochemical. Conditions: recombinant kinase, 1 µM ATP.
Source text: as §1

Another data set concerns the target SAK (Homo sapiens, UniProt O00444). The data set is described as follows: 33PanQinase protein kinase activity assay. Format: biochemical. Conditions: recombinant kinase, 1 µM ATP.
Source text: as §1

For the next data set, the target named is VEGF-R3 (Homo sapiens, UniProt P35916). The data set is described as follows: 33PanQinase protein kinase activity assay. In kind it is biochemical. Conditions: recombinant kinase, 1 µM ATP.
Source text: as §1

A further data set concerns the target AKT1 (Homo sapiens, UniProt P31749). The data set can be described thus: 33PanQinase protein kinase activity assay. Format: biochemical. Conditions: recombinant kinase, 1 µM ATP.
The next data set concerns the target ARK5 (Homo sapiens, UniProt O60285). The data set is described as follows: 33PanQinase protein kinase activity assay. In kind it is biochemical. Conditions: recombinant kinase, 1 µM ATP.
For the next data set, the target named is Aurora-A (Homo sapiens, UniProt O14965). The data set is described as follows: 33PanQinase protein kinase activity assay. Format: biochemical. Conditions: recombinant kinase, 1 µM ATP.
The next data set has as its target EPHB4 (Homo sapiens, UniProt P54760). The data set is described as follows: 33PanQinase protein kinase activity assay. Conditions: recombinant kinase, 1 µM ATP. In kind it is biochemical.
Another data set addresses FAK (Homo sapiens, UniProt Q05397). The data set is described as follows: 33PanQinase protein kinase activity assay. Format: biochemical. Conditions: recombinant kinase, 1 µM ATP.
For another data set, the target named is IGF1R (Homo sapiens, UniProt P08069). The data set can be described thus: 33PanQinase protein kinase activity assay. Conditions: recombinant kinase, 1 µM ATP. In kind it is biochemical.
The next data set concerns the target SRC (Homo sapiens, UniProt P12931). The data set can be described thus: 33PanQinase protein kinase activity assay. Format: biochemical. Conditions: recombinant kinase, 1 µM ATP.
A further data set has as its target VEGF-R2 (Homo sapiens, UniProt P35968). The data set is described as follows: 33PanQinase protein kinase activity assay. Conditions: recombinant kinase, 1 µM ATP. Format: biochemical.
Source text: as §1

A further data set addresses INSR (Homo sapiens, UniProt P06213). The data set can be described thus: 33PanQinase protein kinase activity assay. In kind it is biochemical. Conditions: recombinant kinase, 1 µM ATP.
The next data set has as its target PDGFRβ (Homo sapiens, UniProt P09619). The data set can be described thus: 33PanQinase protein kinase activity assay. In kind it is biochemical. Conditions: recombinant kinase, 1 µM ATP.
The target in another data set is TIE2 (Homo sapiens, UniProt Q02763). The data set can be described thus: 33PanQinase protein kinase activity assay. Format: biochemical. Conditions: recombinant kinase, 1 µM ATP.
In data set [1] the test system is TK 10, 786-0, M 14, and MCF-7 cell lines. The data set is described as follows: Cell viability assay (CellTiter-Glo), other cell lines. Conditions: TK 10, 786-0, M 14, MCF-7; 48 h; compared with HL-60. Format: cell-based. On the procedure:
In order to determine the cytotoxic profiles of compounds 5 and 8, they were evaluated in cell viability assays (Figure 7) including HL-60, a human myeloblastic leukemia cell line, as it has been shown that the proliferation and differentiation of these cells depend upon PDGFR-signalling. Cells were treated with compounds 5 and 8 and after 48 h incubation, their viability was determined. […] This is in line with the notion that HL-60 cells depend on PDGFR-signaling.
The cells were grown in RPMI 1640 Glutamax with 10% FCS, 100 µg/mL streptomycin and 100 U/mL Penicillin G and incubated in a 5% CO2 humidified atmosphere at 37 °C. For proliferation experiments, cells were seeded in 20 µL pro well into 384-well Greiner 384 CellStar® plates (Greiner Bio-One I. AG, Kremsmünster, AT). In addition to the test plates, one plate was prepared for the reference measurement at day zero. All plates were incubated for 24 h at 37 °C in a humidified atmosphere with 5% CO2. […] The viability of the cells in the day zero control plates were determined on the same day without adding any compounds. […] The luminescence signal was measured at the EnSpire® Multimode Plate Reader (PerkinElmer, Waltham, MA, USA). […] Measured raw data were converted into percent of cell growth by using the high control (0.5% DMSO v/v without compound) and the day zero control. […]

In a further data set the target is EGFR (Homo sapiens, UniProt P00533). The data set is described as follows: biochemical.
A further data set relates to HL-60 cells. The data set can be described thus: Cell viability assay (CellTiter-Glo). Conditions: Homo sapiens, 48 h incubation. In kind it is cell-based.
Data set [2] relates to bacterial methicillin-resistant Staphylococcus (MRSA-PK). Set-up: method as in PMID 22030393. Conditions: cited from earlier work.

VEGF-R3, sequence (P35916 25-1363): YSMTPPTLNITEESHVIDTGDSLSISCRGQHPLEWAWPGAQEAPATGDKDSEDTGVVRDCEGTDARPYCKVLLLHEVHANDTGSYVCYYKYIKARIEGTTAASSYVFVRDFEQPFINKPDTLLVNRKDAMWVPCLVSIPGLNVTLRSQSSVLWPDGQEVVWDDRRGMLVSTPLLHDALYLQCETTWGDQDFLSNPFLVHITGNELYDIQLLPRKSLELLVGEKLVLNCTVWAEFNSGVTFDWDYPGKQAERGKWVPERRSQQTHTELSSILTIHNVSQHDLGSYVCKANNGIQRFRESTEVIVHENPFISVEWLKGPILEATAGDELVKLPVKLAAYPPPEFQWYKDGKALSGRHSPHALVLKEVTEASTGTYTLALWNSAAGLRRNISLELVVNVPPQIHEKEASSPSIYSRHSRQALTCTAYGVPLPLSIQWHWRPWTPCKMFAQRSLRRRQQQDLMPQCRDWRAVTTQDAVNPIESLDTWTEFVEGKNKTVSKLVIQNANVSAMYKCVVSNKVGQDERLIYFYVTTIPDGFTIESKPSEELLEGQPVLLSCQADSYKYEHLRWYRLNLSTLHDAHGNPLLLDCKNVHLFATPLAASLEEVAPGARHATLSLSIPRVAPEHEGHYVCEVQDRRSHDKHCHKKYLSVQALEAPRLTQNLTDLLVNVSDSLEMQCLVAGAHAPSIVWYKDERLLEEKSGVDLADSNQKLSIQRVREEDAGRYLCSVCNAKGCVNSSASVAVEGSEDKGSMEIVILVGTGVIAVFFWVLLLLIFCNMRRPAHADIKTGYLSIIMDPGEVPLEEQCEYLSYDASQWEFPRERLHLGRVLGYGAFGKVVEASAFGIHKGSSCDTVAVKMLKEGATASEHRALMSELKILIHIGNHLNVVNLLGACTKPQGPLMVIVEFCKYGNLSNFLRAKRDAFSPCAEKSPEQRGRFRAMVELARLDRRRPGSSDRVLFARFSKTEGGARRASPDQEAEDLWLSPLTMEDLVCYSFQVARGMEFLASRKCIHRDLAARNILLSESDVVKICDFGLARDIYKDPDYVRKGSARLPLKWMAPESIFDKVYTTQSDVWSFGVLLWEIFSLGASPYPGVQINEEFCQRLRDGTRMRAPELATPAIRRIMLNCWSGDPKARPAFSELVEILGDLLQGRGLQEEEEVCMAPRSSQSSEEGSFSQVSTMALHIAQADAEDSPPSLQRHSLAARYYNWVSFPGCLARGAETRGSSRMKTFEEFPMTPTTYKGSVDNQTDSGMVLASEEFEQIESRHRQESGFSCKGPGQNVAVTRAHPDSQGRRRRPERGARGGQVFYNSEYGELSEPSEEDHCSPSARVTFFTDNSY
PDGFRβ, sequence (P09619 33-1106): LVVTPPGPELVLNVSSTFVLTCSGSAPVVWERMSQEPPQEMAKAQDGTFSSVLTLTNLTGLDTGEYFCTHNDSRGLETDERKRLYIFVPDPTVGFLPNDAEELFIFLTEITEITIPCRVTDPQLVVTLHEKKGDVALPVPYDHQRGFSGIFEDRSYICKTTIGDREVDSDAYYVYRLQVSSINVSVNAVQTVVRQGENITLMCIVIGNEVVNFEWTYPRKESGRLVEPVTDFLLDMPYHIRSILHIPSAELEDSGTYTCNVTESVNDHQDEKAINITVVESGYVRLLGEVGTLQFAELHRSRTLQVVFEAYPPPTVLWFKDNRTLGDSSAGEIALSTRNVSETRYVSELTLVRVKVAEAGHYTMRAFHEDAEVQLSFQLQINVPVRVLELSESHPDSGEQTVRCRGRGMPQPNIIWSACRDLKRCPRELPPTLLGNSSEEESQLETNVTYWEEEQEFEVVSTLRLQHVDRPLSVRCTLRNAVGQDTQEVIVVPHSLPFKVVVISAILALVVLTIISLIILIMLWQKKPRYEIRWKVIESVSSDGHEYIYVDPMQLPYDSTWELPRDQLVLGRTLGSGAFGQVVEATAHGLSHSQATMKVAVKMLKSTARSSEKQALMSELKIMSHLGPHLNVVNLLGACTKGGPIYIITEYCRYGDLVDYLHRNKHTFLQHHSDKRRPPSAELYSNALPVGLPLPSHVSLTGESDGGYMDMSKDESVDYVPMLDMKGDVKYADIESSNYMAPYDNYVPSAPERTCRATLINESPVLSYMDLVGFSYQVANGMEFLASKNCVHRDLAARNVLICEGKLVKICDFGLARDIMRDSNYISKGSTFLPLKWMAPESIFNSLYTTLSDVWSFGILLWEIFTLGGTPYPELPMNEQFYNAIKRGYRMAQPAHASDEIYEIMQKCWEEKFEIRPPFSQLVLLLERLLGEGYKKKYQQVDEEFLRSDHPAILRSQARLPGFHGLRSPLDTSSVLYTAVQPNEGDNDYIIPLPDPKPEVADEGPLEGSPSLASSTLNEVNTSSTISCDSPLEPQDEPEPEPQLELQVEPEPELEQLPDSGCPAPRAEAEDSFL
MET, sequence (P08581 25-1390): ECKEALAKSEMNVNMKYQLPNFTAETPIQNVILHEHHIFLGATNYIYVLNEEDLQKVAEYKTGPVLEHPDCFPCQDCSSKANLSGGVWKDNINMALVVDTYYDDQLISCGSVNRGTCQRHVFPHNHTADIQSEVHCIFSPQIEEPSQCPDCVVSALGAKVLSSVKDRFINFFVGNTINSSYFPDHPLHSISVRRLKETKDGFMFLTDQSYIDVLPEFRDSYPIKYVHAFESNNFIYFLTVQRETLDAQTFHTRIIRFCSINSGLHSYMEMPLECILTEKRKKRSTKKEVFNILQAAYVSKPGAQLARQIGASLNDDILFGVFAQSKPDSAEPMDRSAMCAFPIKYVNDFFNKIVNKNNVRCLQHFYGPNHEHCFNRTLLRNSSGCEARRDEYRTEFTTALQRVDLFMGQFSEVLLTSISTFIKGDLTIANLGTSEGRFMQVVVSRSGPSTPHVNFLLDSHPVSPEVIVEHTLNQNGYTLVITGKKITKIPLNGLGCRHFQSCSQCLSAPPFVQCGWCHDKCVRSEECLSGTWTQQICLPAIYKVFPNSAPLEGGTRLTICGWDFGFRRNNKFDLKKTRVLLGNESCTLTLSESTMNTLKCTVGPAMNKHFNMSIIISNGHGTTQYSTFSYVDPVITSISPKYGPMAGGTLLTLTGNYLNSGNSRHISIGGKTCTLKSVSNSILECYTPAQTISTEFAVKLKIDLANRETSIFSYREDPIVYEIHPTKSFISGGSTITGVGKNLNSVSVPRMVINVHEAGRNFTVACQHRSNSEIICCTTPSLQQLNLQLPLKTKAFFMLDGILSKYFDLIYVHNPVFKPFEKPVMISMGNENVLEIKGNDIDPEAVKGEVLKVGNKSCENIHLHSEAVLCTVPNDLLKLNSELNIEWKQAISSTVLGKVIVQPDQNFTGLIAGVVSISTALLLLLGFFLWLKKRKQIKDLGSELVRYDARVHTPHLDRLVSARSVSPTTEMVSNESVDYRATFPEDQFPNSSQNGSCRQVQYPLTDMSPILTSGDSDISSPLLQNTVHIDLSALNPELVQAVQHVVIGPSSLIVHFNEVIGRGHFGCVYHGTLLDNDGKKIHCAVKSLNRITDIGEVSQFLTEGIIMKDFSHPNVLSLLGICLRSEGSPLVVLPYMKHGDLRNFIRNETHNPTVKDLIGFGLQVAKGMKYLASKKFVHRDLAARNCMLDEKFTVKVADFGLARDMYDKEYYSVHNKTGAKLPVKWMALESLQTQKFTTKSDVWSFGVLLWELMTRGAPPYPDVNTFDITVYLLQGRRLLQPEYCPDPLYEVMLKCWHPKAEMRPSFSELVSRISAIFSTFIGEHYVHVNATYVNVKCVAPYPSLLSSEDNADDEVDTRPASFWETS
Aurora-B, sequence (Q96GD4 whole entry): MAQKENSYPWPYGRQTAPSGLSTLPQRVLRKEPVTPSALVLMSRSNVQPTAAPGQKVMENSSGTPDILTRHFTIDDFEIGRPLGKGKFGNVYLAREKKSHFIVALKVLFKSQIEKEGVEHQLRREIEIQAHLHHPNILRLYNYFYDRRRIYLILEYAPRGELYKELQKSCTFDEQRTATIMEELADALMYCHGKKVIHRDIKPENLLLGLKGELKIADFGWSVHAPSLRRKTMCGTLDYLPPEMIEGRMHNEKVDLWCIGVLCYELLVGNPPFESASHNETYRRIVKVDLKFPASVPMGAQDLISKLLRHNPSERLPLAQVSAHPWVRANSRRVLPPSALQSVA
B-RAF-VE, sequence (P15056 whole entry V600E): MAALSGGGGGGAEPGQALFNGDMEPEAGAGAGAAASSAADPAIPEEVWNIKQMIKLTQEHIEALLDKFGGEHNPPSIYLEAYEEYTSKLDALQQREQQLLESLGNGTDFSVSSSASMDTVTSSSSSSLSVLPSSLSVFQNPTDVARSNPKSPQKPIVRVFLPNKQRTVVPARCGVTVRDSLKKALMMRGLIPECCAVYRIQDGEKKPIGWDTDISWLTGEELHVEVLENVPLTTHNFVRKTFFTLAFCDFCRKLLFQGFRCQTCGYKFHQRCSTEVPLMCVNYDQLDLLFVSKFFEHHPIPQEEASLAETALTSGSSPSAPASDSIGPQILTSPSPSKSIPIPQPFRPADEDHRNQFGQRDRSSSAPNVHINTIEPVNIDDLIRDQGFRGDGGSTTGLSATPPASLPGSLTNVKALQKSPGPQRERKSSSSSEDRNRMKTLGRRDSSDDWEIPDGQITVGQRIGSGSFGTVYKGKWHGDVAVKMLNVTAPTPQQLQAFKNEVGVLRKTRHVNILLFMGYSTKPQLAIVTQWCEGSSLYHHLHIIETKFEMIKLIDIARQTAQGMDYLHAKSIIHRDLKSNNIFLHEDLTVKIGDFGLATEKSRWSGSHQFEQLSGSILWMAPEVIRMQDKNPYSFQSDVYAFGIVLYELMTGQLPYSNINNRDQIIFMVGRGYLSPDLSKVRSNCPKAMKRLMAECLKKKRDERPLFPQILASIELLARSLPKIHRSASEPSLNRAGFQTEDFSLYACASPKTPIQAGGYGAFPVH
Protocol for AKT1: (§2) Protein kinase Assay. A proprietary protein kinase assay (^33PanQinase® Activity Assay) was used for measuring the kinase activity of the 24 protein kinases. All protein kinase assays were performed in 96-well FlashPlates™ (Perkin Elmer/NEN, Boston, MA, USA) in a 50 µL reaction volumes. Assays for all enzymes were performed in a solution containing 60 mM HEPES-NaOH, pH 7.5, 3 mM MgCl2, 3 mM MnCl2, 3 µM Na-orthovanadate, 1.2 mM DTT, 50 µg/mL PEG20000, 1 µM [γ-33P]-ATP (approx. 5 × 10^5 cpm per well), recombinant protein kinase (50–400 ng). Depending upon the kinase being assayed, appropriate substrates were used and were as follows (substrates shown in parentheses): AKT1 (GSK3/14-27), ARK5 (autophosphorylation), Aurora-A, Aurora-B (Tetra(LRRWSLG)), B-Raf-VE (MEK1 KM), CDK2/CycA (histone H1), CDK4/CycD1 (Rb-CTF), CK2-A1 (Casein), EGF-R, EPHB4, ERBB2, FAK, IGF1-R, SRC, VEGF-R2, VEGF-R3 (poly(Glu,Tyr) 4:1), FLT3, INS-R, MET, PDGFRβ (poly(Ala,Glu,Lys,Tyr) 6:2:5:1), PLK1 (Casein), SAK (autophosphorylation), TIE2 (poly(Glu,Tyr) 4:1), COT (autophosphorylation). The IC50 values were measured by testing 10 concentrations of compounds by single sampling. The final DMSO concentration in the assay was 1% (v/v). The data were fitted using the 4-parameter logistic fit option of GraphPad Prism 5.
Protocol for ARK5: (§3) The inhibitory profile of compounds was determined using the following 24 protein kinases (GenBankAcc.No. available on http://www.proqinase.com/pages/science [29]): AKT1, ARK5, Aurora-A, Aurora-B, B-Raf-VE, CDK2/CycA, CDK4/CycD1, CK2-A1, EGF-R, EPHB4, ERBB2, FAK, IGF1-R, SRC, VEGF-R2, VEGF-R3, FLT3, INS-R, MET, PDGFRβ, PLK1, SAK, TIE2 and COT. All protein kinases were expressed using human cDNAs in Sf9 insect cells as recombinat GST-fusion proteins or His-tagged proteins by means of the baculovirus expression system. Kinases were purified by affinity chromatography using either GSH-agarose (Sigma) or Ni-NTA-agarose (Qiagen). The purity and identity of each kinase was determined by SDS-PAGE/silver staining and western blot analysis using specific antibodies.
(§4) Protein kinase Assay. A proprietary protein kinase assay (^33PanQinase® Activity Assay) was used for measuring the kinase activity of the 24 protein kinases. All protein kinase assays were performed in 96-well FlashPlates™ (Perkin Elmer/NEN, Boston, MA, USA) in a 50 µL reaction volumes. Assays for all enzymes were performed in a solution containing 60 mM HEPES-NaOH, pH 7.5, 3 mM MgCl2, 3 mM MnCl2, 3 µM Na-orthovanadate, 1.2 mM DTT, 50 µg/mL PEG20000, 1 µM [γ-33P]-ATP (approx. 5 × 10^5 cpm per well), recombinant protein kinase (50–400 ng). […] The IC50 values were measured by testing 10 concentrations of compounds by single sampling. […]
Protocol for Aurora-A: as §3, §4
Protocol for EPHB4: as §2
Protocol for FAK: Recombinant protein kinases. The inhibitory profile of compounds was determined using the following 24 protein kinases (GenBankAcc.No. available on http://www.proqinase.com/pages/science [29]): AKT1, ARK5, Aurora-A, Aurora-B, B-Raf-VE, CDK2/CycA, CDK4/CycD1, CK2-A1, EGF-R, EPHB4, ERBB2, FAK, IGF1-R, SRC, VEGF-R2, VEGF-R3, FLT3, INS-R, MET, PDGFRβ, PLK1, SAK, TIE2 and COT. All protein kinases were expressed using human cDNAs in Sf9 insect cells as recombinat GST-fusion proteins or His-tagged proteins by means of the baculovirus expression system. Kinases were purified by affinity chromatography using either GSH-agarose (Sigma) or Ni-NTA-agarose (Qiagen). The purity and identity of each kinase was determined by SDS-PAGE/silver staining and western blot analysis using specific antibodies.
Protein kinase Assay. A proprietary protein kinase assay (^33PanQinase® Activity Assay) was used for measuring the kinase activity of the 24 protein kinases. All protein kinase assays were performed in 96-well FlashPlates™ (Perkin Elmer/NEN, Boston, MA, USA) in a 50 µL reaction volumes. […] The IC50 values were measured by testing 10 concentrations of compounds by single sampling. […]
Protocol for HL-60 cells: The cells were grown in RPMI 1640 Glutamax with 10% FCS, 100 µg/mL streptomycin and 100 U/mL Penicillin G and incubated in a 5% CO2 humidified atmosphere at 37 °C. For proliferation experiments, cells were seeded in 20 µL pro well into 384-well Greiner 384 CellStar® plates (Greiner Bio-One I. AG, Kremsmünster, AT). In addition to the test plates, one plate was prepared for the reference measurement at day zero. All plates were incubated for 24 h at 37 °C in a humidified atmosphere with 5% CO2. […] The final DMSO concentration in the assay was 0.5% v/v. The viability of the cells in the day zero control plates were determined on the same day without adding any compounds. The CellTiter-Glo® Viability Assay was used to determine the viability of cells using the standard protocol for this assay (Promega Corp., Madison, WI, USA). The luminescence signal was measured at the EnSpire® Multimode Plate Reader (PerkinElmer, Waltham, MA, USA). Test plates were incubated for further 48 h and the cell viability was defined as just described. Measured raw data were converted into percent of cell growth by using the high control (0.5% DMSO v/v without compound) and the day zero control. For dose-response studies, 11 different concentrations of compounds were tested in quadruplicates. The IC50 values were calculated using the 4-parameter logistic fit option of GraphPad Prism 5.
Protocol for IGF1R: as §2
Protocol for INSR: as §3, §4
Protocol for PDGFRβ: as §2
Protocol for SRC: as §2
Protocol for TIE2: as §3, §4

For the molecule “3-(indole-3-yl)-4-(3,4,5-trimethoxyphenyl)-1H-pyrrole-2,5-dione [Compound 1, reference compound]”, the IC50 on Aurora-B is 66 µM; on CDK2/CycA it was 66 µM; at CDK4/CycD1 it was 56 µM; on B-RAF-VE it was greater than 100 µM; at CK2a1, greater than 100 µM; on COT it was 32 µM. For the same molecule, the IC50 on ERBB2 is 51 µM; on FLT3, 61 µM; on MET it was 60 µM; on PLK1 it was greater than 100 µM; on SAK, 10 µM; at VEGF-R3, 0.037 µM.

For the molecule `COc1cc(-c2nc(-c3c[nH]c4ccccc34)c[nH]c2=O)cc(OC)c1OC` [Compound 5, 5-(1H-indole-3-yl)-3-(3,4,5-trimethoxyphenyl)pyrazin-2(1H)-one], the IC50 at AKT1, at ARK5, at Aurora-A, on Aurora-B, at EPHB4 and on FAK was greater than 100 µM throughout. The IC50 at IGF1R, on SRC, on B-RAF-VE, at CK2a1, at COT and on ERBB2 was greater than 100 µM in each case. Besides, the IC50 at FLT3 is 36 µM; on MET, greater than 100 µM; on PLK1 it was greater than 100 µM; on SAK, greater than 100 µM; at VEGF-R2, 4 µM; on VEGF-R3, 5 µM. For the same molecule, the IC50 at INSR was greater than 100 µM; on PDGFRβ it was 0.5 µM; on TIE2, greater than 100 µM; on EGFR, greater than 100 µM. The “IC50 (µM) VEGF-R3” value at VEGF-R3 is given as “low µM range”. Also, the “cytotoxic effect on the other cells tested” value in [1] was “significantly less affected”.

Consider `COc1ccc(-c2nc(-c3c[nH]c4ccccc34)c[nH]c2=O)cc1OC` [Compound 6, 3-(3,4-dimethoxyphenyl)-5-(1H-indol-3-yl)-1H-pyrazin-2-one], for which the IC50 at PDGFRβ came out at 1.5 µM.

Turning to `COc1ccc(-c2nc(-c3c[nH]c4ccccc34)c[nH]c2=O)cc1` [Compound 7, 3-(4-methoxyphenyl)-5-(1H-indol-3-yl)-1H-pyrazin-2-one], the IC50 at PDGFRβ came to 19 µM.

As to `COc1cc(-c2nc(-c3c[nH]c4ccc(O)cc34)c[nH]c2=O)cc(OC)c1OC` [Compound 8, 5-(5-hydroxy-1H-indole-3-yl)-3-(3,4,5-trimethoxyphenyl)pyrazin-2(1H)-one], the values for the IC50 on PDGFRβ and in the data set on HL-60 cells were 0.3 µM and 30 µM, respectively. Also, the “cytotoxic effect on the other cells tested” value in data set [1] is given as “significantly less affected”.

In the case of `O=C1NC[C@@H](c2c[nH]c3cc(Br)ccc23)N[C@H]1c1c[nH]c2cc(Br)ccc12` [cis-3,4-dihydro hamacanthin B], in data set [2], the IC50 was 0.016 µM.

Source of the values: article PMC3806475, “Marine Derived Hamacanthins as Lead for the Development of Novel PDGFRβ Protein Kinase Inhibitors” (Marine Drugs, 2013).
